# Where no end group is shown, it is not given here.
# Tests used:
# HaCaT cells = test: MTT cytotoxicity assay on HaCaT keratinocytes; type: cell-based, human; conditions: for 50% cytotoxic concentration (CC50): HaCaT keratinocytes, 20 h exposure, 0.39 to 100 μM; for CC50 obtained by the fitting of the curves: HaCaT, 20 h, Figure 1
# Method: To evaluate their safety profile, cytotoxicity assays were performed on HaCaT keratinocytes. Cells were exposed for 20 h to peptides at doses ranging from 0.39 to 100 μM.
# Figure 1 Dose–response curves for the AMPs against HaCaT cell line and CC50 (reported in μM), HillSlope, and R^2 values were obtained by the fitting of the curves. The viability effect of Hylin-a1, AR-23, and RV-23 was analyzed on HaCaT cells. The cell monolayer was treated with serial dilutions of peptides for 20 h. Untreated cells were used as a positive control, while dimethyl sulfoxide (DMSO) was used as a negative control. HillSlope: The measure of the steepness of the dose–response curve. […] R^2 (coefficient of determination) indicates how well the model fits the data. Ranges from 0 to 1, with 1 representing a perfect fit.
# The cytotoxic effect of peptides was examined using 3-(4,5 dimethylthiazol-2-yl)-2,5-diphenyltetrazolium bromide (MTT), as previously described. Cell viability, expressed as a percentage, was calculated in relation to the viability of untreated cells (+). DMSO was used as negative control (−). The human keratinocyte cell line HaCaT (Cell Lines Service, CLS-, Eppelheim, Germany) was used as a cellular model to evaluate the peptides’ cytotoxicity. HaCaT cells were grown in Dulbecco’s Modified Eagle Medium (DMEM) with 4.5 g/L of glucose (Microtech, Naples, Italy) supplemented with an antibiotic solution 100× (Himedia, Naples, Italy) and 10% Fetal Bovine Serum (FBS, Microtech).
# E. coli ATCC 25992 = conditions: for MBC: colonies' growth on agar plates after microdilution, N/D = not detected antibacterial activity; for MIC: microdilution (NCCLS), MH broth, 5 × 10^5 CFU/mL, 37 °C, 20 h, absorbance, 50 to 1.56 μM
# Method: (§1) The three peptides were tested for their antibacterial activity. […] As described in the Materials and Methods section, the antibacterial effect of peptides was investigated using a microdilution assay. Each concentration of AMPs was inoculated with bacteria in 96-well plates and incubated at 37 °C for 20 h. After that, MIC values were determined by analyzing absorbance and expressed as a percentage of inhibition. MBC was assessed by observing the colonies’ growth on agar plates, as described elsewhere.
# (§2) Each strain was grown in Mueller Hinton Broth (MH Broth), and 5 × 10^5 CFU/mL was used to evaluate antibacterial activity. Clinical carbapenem-resistant K. pneumoniae and E. coli isolates were collected at the AOU of Virology and Microbiology of the University of Campania “Luigi Vanvitelli”.
# (§3) The antimicrobial activity of Hylin-a1, AR-23, and RV-23 was investigated using a microdilution assay as reported by the National Committee on Clinical Laboratory Standards (NCCLS) guidelines against a broad spectrum of Gram-negative bacteria. […] In 96-well, the standardized bacterial inoculum (5 × 10^5 colony forming units, CFU/mL) was inoculated together with AMPs and incubated at 37 °C for 20 h. After the time of incubation, optical density (OD) was measured at TECAN, and data were expressed as a percentage of inhibition. In addition to assessing the MIC values, the bactericidal effect was also studied as reported elsewhere.
# K. pneumoniae ATCC 10031 [1] = conditions: for MBC: colonies' growth on agar plates after microdilution, N/D = not detected antibacterial activity; for MIC: microdilution (NCCLS), MH broth, 5 × 10^5 CFU/mL, 37 °C, 20 h, absorbance, 50 to 1.56 μM
# Method: as §1, §2, §3
# E. coli = conditions: against E. coli; ref 63 (Zhang et al.); cited from earlier work
# Excerpt: The activity of AR-23 and RV-23 against Gram-negative bacteria has been briefly described in previous studies. Zhang et al. evaluated the antibacterial effects of both peptides against E. coli. […] The authors attributed this enhanced activity to RV-23’s lower hydrophobicity and higher hydrophobic moment, factors strongly associated with reduced cytotoxicity and greater selectivity compared to AR-23. In contrast, the antibacteri ...
# K. pneumoniae 311 = conditions: carbapenemase OXA-48 (class D), rectal swab, N/D = no antibacterial activity detected
# Method: as §2, §3
# K. pneumoniae ATCC 10031 [2] = test: Biofilm initial cell attachment assay; type: cell-based, Klebsiella pneumoniae; conditions: 2 h; for concentration of total reduction in biofilm attachment (antibiofilm MIC): initial cell attachment, 37 °C, peptides 50-1.56 μM, absorbance 570 nm
# Method: We also investigated the ability of peptides to interfere with biofilm using three different assays (refer to the Section 4) against K. pneumonia and E. coli.
# Figure 3 The effect of Hylin-a1, AR-23, and RV-23 on the initial cell attachment of biofilm formation. […] Statistical analysis was performed by One-way ANOVA followed by Dunnett’s multiple comparisons test.
# The anti-biofilm activity of peptides was evaluated against E. coli and K. pneumoniae ATCC strains. Bacterial cultures were grown overnight, then diluted to an OD600 of 0.1 in MH broth supplemented with 1% (v/v) glucose. A 100 μL aliquot of the bacterial suspension was combined with an equal volume of peptides at non-cytotoxic concentrations in a 96-well plate and incubated at 37 °C for 2 h. Following incubation, non-adherent planktonic cells were removed by washing with phosphate-buffered saline (PBS, Microtech), and adherent cells were incubated with MTT solution for 3 h at 37 °C. Additionally, adherent cells were collected, resuspended in PBS, and plated on agar for viable cell counting. Serial dilutions were performed for each peptide, and CFU/mL were determined after 20 h of incubation at 37 °C (Figure S2). Absorbance was measured at 570 nm to evaluate adhesion percentage.
# K. pneumoniae = test: Checkerboard assay with meropenem; conditions: checkerboard, 20 h, OD600
# K. pneumoniae ATCC 10031 [3] = test: Time-kill assay; type: cell-based, Klebsiella pneumoniae
# Method: This in vitro method allows for assessing the kinetics of bacterial killing by peptides over time. […] Specifically, at each time point, 50 μL aliquots of the bacterial–peptide mixtures were collected and plated on agar (see Materials and Methods for further details). Following incubation, colony-forming units (CFUs) were counted and the killing rate of each peptide concentration was calculated (Figure 2).
# Figure 2 Evaluation of the kinetic-killing effect of Hylin-a1, AR-23, and RV-23 against K. pneumoniae and E. coli. […] Untreated bacteria was used as control negative (CTR- in black).
# Using the same conditions as the MIC assay, a time–kill test was performed to monitor bacterial growth over time. […] Finally, bacterial colonies were counted, and the CFU/mL was calculated.
substance,measurement,setting,value
RIGVLLARLPKLFSLFKLMGKKV-NH2 [RV-23],50% cytotoxic concentration (CC50),HaCaT cells,100 µM
same,CC50 obtained by the fitting of the curves,HaCaT cells,101.8 µM
same,MBC,E. coli ATCC 25992,12.5 µM
same,MIC,E. coli ATCC 25992,12.5 µM
same,MBC,K. pneumoniae ATCC 10031 [1],12.5 µM
same,MIC,K. pneumoniae ATCC 10031 [1],6.25 µM
same,MIC,E. coli,3.33 µM
same,MBC,K. pneumoniae 311,50 µM
same,MIC,"K. pneumoniae 311; microdilution, 37 °C, 20 h",50 µM
same,concentration of total reduction in biofilm attachment (antibiofilm MIC),K. pneumoniae ATCC 10031 [2],50 µM
same,MIC of peptide in combination with meropenem,K. pneumoniae,3.125 µM
same,time to significant reduction in bacterial viability / bactericidal effect,K. pneumoniae ATCC 10031 [3],≤ 2 h
IFGAILPLALGALKNLIK-NH2 [Hylin-a1],50% cytotoxic concentration (CC50),HaCaT cells,100 µM
same,CC50 obtained by the fitting of the curves,HaCaT cells,102.6 µM
same,MBC,E. coli ATCC 25992,25 µM
same,MIC,E. coli ATCC 25992,25 µM
same,MBC,K. pneumoniae ATCC 10031 [1],6.25 µM
same,MIC,K. pneumoniae ATCC 10031 [1],6.25 µM
same,reduction of biofilm (initial attachment),K. pneumoniae ATCC 10031 [2]; at 50 μM,80–100%
same,concentration of total reduction in biofilm attachment (antibiofilm MIC),K. pneumoniae ATCC 10031 [2],50 µM
same,bacterial killing in time-kill assay,K. pneumoniae ATCC 10031 [3],kills bacteria
